The values that follow come from US20180050993A1, “NOVEL FLUORINATED DERIVATIVES AS EGFR INHIBITORS USEFUL FOR TREATING CANCERS” (Trillium Therapeutics Inc., priority 2015, published 2018).

Counter-ions that a name gives are not always drawn. Like-named read-outs stand apart in the source and are kept apart here.

One data set has as its target T1, EGFR (L858R, T790M) (Homo sapiens, UniProt P00533, L858R/T790M).
T1 construct: purchased Reaction Biology
Briefly: Kinase HotSpot profiling (Reaction Biology), 33P-ATP filter-binding. The format is biochemical. The following applies: mutant EGFR L858R. On the procedure:
(§1) Base Reaction buffer; 20 mM Hepes (pH 7.5), 10 mM MgCl2, 1 mM EGTA, 0.02% Brij35, 0.02 mg/ml BSA, 0.1 mM Na3VO4, 2 mM DTT, 1% DMSO
(§2) *Required cofactors are added individually to each kinase reaction
(§3) 1. The indicated substrate was prepared in fresh Base Reaction Buffer.
(§4) 2. Any required cofactors were added to the substrate solution above.
(§5) 3. Indicated kinase was added into the substrate solution and gently mixed.
(§6) 4. Compounds in DMSO were added into the kinase reaction mixture by Acoustic technology (Echo550; nanoliter range) and incubated for 20 minutes at room temperature.
(§7) 5. 33P-ATP (specific activity 10 μCi/μl) was added into the reaction mixture to initiate the reaction.
(§8) 6. The kinase reaction was incubated for 2 hours at room temperature
(§9) 7. Reactions were spotted onto P81 ion exchange paper.
(§10) 8. Kinase activity was detected by filter-binding method.
(§11) Representative compounds of Formula I were evaluated against WT EGFR and mutant EGFR (L858R and L858R, T790M) kinases. IC50 concentrations are illustrated in Table 9.

Another data set addresses T2, EGFR (L858R) (Homo sapiens, UniProt P00533, L858R).
T2 construct: purchased Reaction Biology
Described as above. Type of data set: biochemical. The conditions noted are these: mutant EGFR L858R. On the procedure:
as §1, §2, §3, §4, §5, §6, §7, §8, §9, §10, §11

The target of a further data set is T3, EGFR (Homo sapiens, UniProt P00533).
T3 construct: purchased Reaction Biology
T3 sequence (P00533 25-1210): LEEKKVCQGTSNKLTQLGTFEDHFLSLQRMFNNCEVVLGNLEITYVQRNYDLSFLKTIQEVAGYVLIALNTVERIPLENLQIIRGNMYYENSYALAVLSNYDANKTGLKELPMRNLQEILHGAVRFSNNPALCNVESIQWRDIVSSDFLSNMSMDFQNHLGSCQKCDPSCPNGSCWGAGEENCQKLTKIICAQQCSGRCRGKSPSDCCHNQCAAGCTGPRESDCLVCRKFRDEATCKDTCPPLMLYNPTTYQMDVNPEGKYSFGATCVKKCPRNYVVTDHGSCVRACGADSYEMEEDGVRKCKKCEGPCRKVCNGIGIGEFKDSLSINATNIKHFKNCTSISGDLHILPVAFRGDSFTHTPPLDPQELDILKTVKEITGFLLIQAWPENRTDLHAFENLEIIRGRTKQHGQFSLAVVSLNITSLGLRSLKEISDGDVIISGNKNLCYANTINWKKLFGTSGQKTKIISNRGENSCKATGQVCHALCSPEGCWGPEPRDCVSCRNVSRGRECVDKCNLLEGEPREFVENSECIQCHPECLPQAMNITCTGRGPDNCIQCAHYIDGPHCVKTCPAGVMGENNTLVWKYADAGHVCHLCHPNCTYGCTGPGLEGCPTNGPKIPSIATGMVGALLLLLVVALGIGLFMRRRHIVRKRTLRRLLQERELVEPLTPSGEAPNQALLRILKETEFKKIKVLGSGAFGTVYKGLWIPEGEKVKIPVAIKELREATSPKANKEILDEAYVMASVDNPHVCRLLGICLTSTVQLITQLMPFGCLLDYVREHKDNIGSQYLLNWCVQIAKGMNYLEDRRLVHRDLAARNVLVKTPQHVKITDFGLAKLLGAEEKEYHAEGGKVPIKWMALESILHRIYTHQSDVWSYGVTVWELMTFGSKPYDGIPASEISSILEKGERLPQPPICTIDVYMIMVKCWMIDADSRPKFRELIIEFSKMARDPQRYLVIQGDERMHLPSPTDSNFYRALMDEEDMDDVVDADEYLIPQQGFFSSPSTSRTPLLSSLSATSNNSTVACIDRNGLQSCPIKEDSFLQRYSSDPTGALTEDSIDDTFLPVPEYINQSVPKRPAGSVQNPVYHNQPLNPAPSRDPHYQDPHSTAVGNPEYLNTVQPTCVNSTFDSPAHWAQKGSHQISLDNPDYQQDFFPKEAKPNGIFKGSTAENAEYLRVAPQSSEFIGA
The description is as above. The format is biochemical. The following applies: WT EGFR. On the procedure:
as §1, §2, §3, §4, §5, §6, §7, §8, §9, §10, §11

Data set [1] deals with T4, EPHA6 (Homo sapiens, UniProt Q9UF33).
T4 sequence (Q9UF33 23-1036): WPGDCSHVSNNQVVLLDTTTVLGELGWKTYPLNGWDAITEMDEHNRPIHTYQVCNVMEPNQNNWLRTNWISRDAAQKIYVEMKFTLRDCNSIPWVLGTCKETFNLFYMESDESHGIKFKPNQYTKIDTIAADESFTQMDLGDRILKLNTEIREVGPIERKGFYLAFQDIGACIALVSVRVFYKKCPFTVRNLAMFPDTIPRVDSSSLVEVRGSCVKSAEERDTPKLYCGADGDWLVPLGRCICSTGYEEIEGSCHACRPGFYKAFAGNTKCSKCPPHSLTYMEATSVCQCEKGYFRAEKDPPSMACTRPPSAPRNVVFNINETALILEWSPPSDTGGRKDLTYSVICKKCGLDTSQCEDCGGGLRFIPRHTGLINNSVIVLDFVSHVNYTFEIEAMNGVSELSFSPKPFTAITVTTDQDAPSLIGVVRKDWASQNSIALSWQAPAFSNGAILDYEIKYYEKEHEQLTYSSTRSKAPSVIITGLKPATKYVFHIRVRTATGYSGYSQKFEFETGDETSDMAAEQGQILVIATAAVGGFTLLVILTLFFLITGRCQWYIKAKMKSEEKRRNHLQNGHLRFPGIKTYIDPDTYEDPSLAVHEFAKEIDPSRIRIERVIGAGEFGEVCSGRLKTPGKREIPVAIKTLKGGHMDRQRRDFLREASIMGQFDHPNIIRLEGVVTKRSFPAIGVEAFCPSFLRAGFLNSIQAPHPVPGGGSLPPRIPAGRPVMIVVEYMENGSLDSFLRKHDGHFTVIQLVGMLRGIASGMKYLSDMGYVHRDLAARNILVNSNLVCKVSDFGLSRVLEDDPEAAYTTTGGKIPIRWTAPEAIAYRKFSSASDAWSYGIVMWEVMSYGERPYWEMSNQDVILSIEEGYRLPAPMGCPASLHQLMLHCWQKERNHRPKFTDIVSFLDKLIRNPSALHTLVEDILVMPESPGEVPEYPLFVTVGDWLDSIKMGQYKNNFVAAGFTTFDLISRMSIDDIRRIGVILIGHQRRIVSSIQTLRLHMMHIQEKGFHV
Briefly: Kinome screen at 300 nM (qPCR competition binding). The conditions noted are these: result in words. The arrangement: purchased DiscoveRx; host or cells: E. coli BL21-derived (T7 phage) or HEK-293. (In general: Real-time PCR tracks product formation cycle by cycle.)

Data set [2] can be described thus: Mouse liver microsomal stability. Type of data set: in vitro ADME. The following applies: stability in pooled mouse (CD-1, male) liver microsomes 0.5 mg/ml, compound 1 μM, parent compound by LC/MS, in % (unit assumed). The protocol:
(§12) Working stocks were initially diluted to a concentration of 40.0 μM in 0.1 M potassium phosphate buffer before addition to the reaction vials. Pooled mouse (CD-1, male) or human (50 donors) liver microsomes were utilized at a final concentration of 0.5 mg/ml. Duplicate wells were used for each time point (0 and 30 minutes). Reactions were carried out at 37° C. in a shaker, and the final concentration of DMSO was kept constant at 0.01%. The final volume for each reaction was 100 μL, which includes the addition of an NADPH-Regeneration solution (NRS) mix. This NRS mix is comprised of glucose 6-phosphate dehydrogenase (0.4 U/mL), NADP+ (1.3 mM), MgCl2 (3.3 mM), and glucose 6-phosphate (3.3 mM) in assay mixtures. Upon completion of the 30 minute time point, reactions were terminated by the addition of 1.5-volumes (150 μL) of ice-cold, acetonitrile with 0.5% formic acid and internal standard. Samples were then centrifuged at 4,000 rpm for 10 minutes to remove debris and precipitated protein. Approximately 150 μL of supernatant was subsequently transferred to a new 96 well microplate for LC/MS analysis.
(§13) Narrow-window mass extraction LC/MS analysis was performed for all samples using a Waters Xevo quadrupole time-of-flight (QTof) mass spectrometer and an ACQUITY UPLC system, to determine relative peak areas of parent compound.
(§14) Human and mouse liver microsomes contain a wide variety of drug metabolizing enzymes and are commonly used to support in vitro ADME (absorption, distribution, metabolism and excretion) studies. These microsomes are used to examine the potential first-pass metabolism by-products of orally administered drugs. Representative compounds of the application were evaluated for their stability in human and mouse liver microsomes.
For orientation: Microsomes from liver hold many membrane-bound enzymes, among them those of drug oxidation.

Data set [3] can be described thus: Human liver microsomal stability. The format is in vitro ADME. The conditions noted are these: stability in pooled human (50 donors) liver microsomes 0.5 mg/ml, compound 1 μM, parent compound by LC/MS. On the procedure:
as §12, §13, §14

For data set [4], the target named is T4, EPHA6. Briefly: Binding constants (Kd) for EPHA6, kinase competition binding with qPCR readout.
A short description of data set [5]: Brain and plasma concentrations after oral gavage in rat, sampling to 4 hours (Table 4). The conditions noted are these: Table 4 (4 hours); for AUClast / Cmax / Tmax: brain tissue, PO 50 mg/kg; for Cmax / Tmax / Kp at 4 h: male, Sprague-Dawley (SD); for Kp at 4 h: brain/plasma, po, 50 mg/kg. Type of data set: in vivo.
Another data set relates to HCC827. Nature of the data set: Comparison with 1st generation inhibitors against a lung cancer cell line (HCC827). Type of data set: cell-based. The conditions noted are these: Homo sapiens, read-out: Biochemical IC50.
A further data set concerns the target T5, P-gp (Homo sapiens, UniProt P08183).
T5 construct: host or cells: Caco-2 (C2BBe1)
Nature of the data set: Evaluation of P-gp efflux in Caco-2 cell monolayers.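 Note: Caco-2 monolayers dosed apically or basolaterally with test compound at 5 µM in HBSS with HEPES and glucose, 37 °C, donor and receiver sampled after 120 min, LC/MS peak areas.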 Type of data set: in vitro ADME. Background: Passage across Caco-2 layers is used to estimate intestinal permeability.

Data set [6] is described as follows: Brain concentrations after PO administration in rat, peak at 8 hours (Table 5). Type of data set: in vivo. The conditions noted are these: Table 5 (8 hours); for Kp at 8 h: brain/plasma, po, 50 mg/kg.
Another data set has as its system EGFR(L747-T751del, Sins). Briefly: Kinome screen at 300 nM (qPCR competition binding).
The mark [7] stands for this setting: Sprague-Dawley, brain, PO 50 mg/kg.

T5 sequence (P08183 whole entry): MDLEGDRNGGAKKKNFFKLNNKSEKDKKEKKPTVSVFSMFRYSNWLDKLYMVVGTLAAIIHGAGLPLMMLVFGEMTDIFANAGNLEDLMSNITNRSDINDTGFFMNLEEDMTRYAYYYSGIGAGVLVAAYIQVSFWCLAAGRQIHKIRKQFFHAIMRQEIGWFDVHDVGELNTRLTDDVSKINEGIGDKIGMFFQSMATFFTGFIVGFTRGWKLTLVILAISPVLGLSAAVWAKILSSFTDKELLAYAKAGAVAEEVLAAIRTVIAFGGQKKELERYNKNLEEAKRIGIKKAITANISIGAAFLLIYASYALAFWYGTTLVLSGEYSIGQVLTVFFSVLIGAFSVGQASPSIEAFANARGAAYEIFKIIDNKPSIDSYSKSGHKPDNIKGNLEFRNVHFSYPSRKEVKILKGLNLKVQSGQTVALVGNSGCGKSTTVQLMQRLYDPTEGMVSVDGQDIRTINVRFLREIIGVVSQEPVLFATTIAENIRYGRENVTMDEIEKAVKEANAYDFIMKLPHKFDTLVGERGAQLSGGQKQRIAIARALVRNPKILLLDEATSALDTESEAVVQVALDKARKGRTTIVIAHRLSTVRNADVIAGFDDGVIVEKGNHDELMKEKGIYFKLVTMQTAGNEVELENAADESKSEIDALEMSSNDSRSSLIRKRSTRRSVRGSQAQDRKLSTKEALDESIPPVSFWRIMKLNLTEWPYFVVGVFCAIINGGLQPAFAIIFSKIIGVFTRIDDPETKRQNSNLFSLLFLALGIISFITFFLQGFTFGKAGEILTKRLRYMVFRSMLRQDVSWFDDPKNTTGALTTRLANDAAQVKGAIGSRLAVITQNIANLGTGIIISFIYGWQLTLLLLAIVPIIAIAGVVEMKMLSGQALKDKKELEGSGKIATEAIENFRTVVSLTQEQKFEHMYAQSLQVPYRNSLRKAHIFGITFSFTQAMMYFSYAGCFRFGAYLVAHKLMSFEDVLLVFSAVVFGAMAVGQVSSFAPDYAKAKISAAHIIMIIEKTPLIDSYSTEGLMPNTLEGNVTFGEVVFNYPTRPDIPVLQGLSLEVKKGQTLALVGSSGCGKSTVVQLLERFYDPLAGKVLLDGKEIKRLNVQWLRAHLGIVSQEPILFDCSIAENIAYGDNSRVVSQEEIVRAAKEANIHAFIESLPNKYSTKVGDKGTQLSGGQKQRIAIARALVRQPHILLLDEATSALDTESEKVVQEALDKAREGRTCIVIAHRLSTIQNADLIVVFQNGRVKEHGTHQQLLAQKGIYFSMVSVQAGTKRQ
T1 sequence (P00533 25-1210 T790M/L858R): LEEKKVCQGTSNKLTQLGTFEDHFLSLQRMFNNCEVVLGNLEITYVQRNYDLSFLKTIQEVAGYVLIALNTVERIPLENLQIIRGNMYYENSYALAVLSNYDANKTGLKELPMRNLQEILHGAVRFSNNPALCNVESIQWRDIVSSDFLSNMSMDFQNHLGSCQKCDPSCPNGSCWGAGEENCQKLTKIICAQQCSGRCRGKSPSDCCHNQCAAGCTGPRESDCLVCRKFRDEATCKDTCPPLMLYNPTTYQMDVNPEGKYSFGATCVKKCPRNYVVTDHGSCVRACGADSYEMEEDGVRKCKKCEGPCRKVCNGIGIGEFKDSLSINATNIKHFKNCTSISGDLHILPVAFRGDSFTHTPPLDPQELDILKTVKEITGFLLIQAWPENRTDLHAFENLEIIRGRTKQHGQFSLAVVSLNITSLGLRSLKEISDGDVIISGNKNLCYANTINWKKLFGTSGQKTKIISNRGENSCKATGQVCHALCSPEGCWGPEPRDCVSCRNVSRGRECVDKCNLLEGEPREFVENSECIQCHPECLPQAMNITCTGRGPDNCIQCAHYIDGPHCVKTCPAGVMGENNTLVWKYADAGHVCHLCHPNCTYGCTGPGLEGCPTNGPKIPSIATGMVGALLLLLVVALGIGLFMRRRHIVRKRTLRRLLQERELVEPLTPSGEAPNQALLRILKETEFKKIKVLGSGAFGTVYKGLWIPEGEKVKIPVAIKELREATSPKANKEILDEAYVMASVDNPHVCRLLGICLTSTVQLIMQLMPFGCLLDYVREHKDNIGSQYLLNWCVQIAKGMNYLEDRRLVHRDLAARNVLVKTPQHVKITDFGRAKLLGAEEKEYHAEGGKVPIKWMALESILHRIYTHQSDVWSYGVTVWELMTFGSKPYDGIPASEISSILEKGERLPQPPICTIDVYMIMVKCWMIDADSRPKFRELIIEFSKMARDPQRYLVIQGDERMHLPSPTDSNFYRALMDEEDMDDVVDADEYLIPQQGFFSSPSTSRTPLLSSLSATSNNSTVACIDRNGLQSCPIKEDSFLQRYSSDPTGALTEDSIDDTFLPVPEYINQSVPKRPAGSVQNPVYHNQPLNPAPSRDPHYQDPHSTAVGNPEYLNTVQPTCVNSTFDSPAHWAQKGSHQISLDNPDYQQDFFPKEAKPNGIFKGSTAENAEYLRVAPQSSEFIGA
T2 sequence (P00533 25-1210 L858R): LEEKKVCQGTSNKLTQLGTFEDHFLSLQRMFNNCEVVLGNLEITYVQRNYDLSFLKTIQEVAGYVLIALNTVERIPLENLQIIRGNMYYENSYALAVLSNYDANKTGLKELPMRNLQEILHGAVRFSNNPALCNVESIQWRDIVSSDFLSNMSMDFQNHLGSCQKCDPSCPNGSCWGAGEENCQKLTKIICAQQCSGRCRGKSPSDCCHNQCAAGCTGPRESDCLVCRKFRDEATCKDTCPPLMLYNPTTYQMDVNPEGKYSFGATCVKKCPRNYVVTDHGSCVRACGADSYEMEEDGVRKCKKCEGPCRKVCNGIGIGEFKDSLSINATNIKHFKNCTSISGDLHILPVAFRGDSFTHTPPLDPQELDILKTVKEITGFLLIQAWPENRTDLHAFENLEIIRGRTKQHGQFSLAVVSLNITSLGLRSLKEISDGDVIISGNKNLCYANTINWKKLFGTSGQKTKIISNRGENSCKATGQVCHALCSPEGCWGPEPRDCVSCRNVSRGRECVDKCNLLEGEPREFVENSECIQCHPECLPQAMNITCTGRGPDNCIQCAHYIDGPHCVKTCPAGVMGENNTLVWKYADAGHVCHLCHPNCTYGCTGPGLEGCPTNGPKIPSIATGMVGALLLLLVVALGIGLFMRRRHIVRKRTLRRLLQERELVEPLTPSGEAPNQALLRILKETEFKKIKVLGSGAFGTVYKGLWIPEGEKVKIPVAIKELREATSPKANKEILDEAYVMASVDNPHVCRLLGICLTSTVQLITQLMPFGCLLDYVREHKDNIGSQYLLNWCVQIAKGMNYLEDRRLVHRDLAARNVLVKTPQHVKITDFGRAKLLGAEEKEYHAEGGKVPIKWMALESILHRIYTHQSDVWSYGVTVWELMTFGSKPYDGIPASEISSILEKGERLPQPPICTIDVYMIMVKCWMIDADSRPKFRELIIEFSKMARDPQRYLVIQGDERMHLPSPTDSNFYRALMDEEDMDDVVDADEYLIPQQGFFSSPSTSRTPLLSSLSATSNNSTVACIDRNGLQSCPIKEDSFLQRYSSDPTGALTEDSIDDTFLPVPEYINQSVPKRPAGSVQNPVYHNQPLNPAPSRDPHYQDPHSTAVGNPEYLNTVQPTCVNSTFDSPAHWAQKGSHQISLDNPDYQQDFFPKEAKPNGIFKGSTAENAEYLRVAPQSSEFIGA

Broadly, the IC50 is the point on the concentration scale where inhibition reaches its midpoint. As for `COc1cc2ncnc(Nc3ccc(F)c(Cl)c3F)c2cc1OC(=O)N1CC[C@@H](COC(F)F)C1` [2(Qq), [4-(3-chloro-2,4-difluoro-anilino)-7-methoxy-quinazolin-6-yl] (3R)-3-(difluoromethoxymethyl)pyrrolidine-1-carboxylate], the half-maximal inhibitory concentration (IC50) stood at 6820 nM at EGFR (L858R, T790M); 0.0164 nM at EGFR (L858R); 0.0138 nM at EGFR.
`COc1cc2ncnc(Nc3ccc(F)c(Cl)c3F)c2cc1OCCCN1CCC(OC(F)F)CC1` [2(q), N-(3-chloro-2,4-difluoro-phenyl)-6-[3-[4-(difluoromethoxy)-1-piperidyl]propoxy]-7-methoxy-quinazolin-4-amine]: the IC50 is 4010 nM on EGFR (L858R, T790M); 0.0142 nM at EGFR (L858R); 0.0434 nM on EGFR.
A word on the Kd: it is the concentration at which binding is half-saturated. One may read the Cmax as the maximum level reached in the sampled fluid or tissue. The term Tmax denotes the time from dosing to the highest level. Broadly, the Papp A→B is the apparent permeability from the apical to the basolateral side of a cell layer. As a reminder, the Papp B→A is the apparent permeability from the basolateral to the apical side of a cell layer. As a reminder, the efflux ratio is the permeability from basolateral to apical divided by that in the opposite direction, in the common usage. Consider `Fc1c(Nc2ncnc3cc(OCCOC(F)F)c(OCCOC(F)F)cc23)ccc(Cl)c1Cl` [Compound 2A•HCl, N-(3,4-dichloro-2-fluoro-phenyl)-6,7-bis[2 (difluoromethoxy)ethoxy]quinazolin-4-amine], for which, at EPHA6 [1], the “selectivity over erlotinib for the ephrin receptor kinase, EPHA6” value is reported as “did show selectivity over erlotinib”. For the same compound, in [2] (listed as 2(a)•HCl), the “MLM (30 min)” value is recorded as 91.7. Also, the HLM (30 min) in data set [3] (listed as 2(a)•HCl) was 97.4%. Moreover, the Kd on EPHA6 [4] stood at 9.1 nM. The AUClast is 22593 ng·h/g in data set [5] and 101853 ng·h/g in data set [6] (brain, PO 50 mg/kg). The Cmax stood at 6980 ng/g in data set [5] and 5610 ng/g in [6] (setting [7]). Also, the Tmax in data set [5] amounted to 4 h; in [6] (setting [7]), 8 h. The Kp at 4 h in [5] (read-out: AUCLast Ratio (Brain/Plasma)) stood at 1.69; in data set [5] (read-out: Cmax Ratio (Brain/Plasma)), 1.81. The IC50 in the data set with HCC827 stood at 21 nM. Moreover, the recovery at 120 min, 5 μM on P-gp (Caco-2, pH 7.4, with none (verapamil 0 μM), Caco-2, Verapamil 0 μM, read-out: Recovery (%) AP-BL) came to 43.4%; on P-gp (Caco-2, pH 7.4, with none (verapamil 0 μM), Caco-2, Verapamil 0 μM, read-out: Recovery (%) BL-AP), 57.1%; at P-gp (Caco-2, pH 7.4, with verapamil 100 μM, Caco-2, Verapamil 100 μM, read-out: Recovery (%) AP-BL), 55.5%; at P-gp (Caco-2, pH 7.4, with verapamil 100 μM, Caco-2, Verapamil 100 μM, read-out: Recovery (%) BL-AP), 83.2%. The Papp A→B at 120 min, 5 μM at P-gp (pH 7.4, Caco-2, Verapamil 0 μM) worked out at 0.58 ×10⁻⁶ cm/s. This compound also yielded a Papp B→A at 120 min, 5 μM at P-gp (pH 7.4, Caco-2, Verapamil 0 μM) of 0.35 ×10⁻⁶ cm/s. Besides, the efflux ratio at 120 min, 5 µM on P-gp (pH 7.4, Caco-2, Verapamil 0 μM) came out at 0.59. In addition, the Kp at 8 h was 1.5 in data set [6] (Sprague-Dawley, read-out: AUCLast Ratio (Brain/Plasma)) and 1.72 in data set [6] (Sprague-Dawley, read-out: Cmax Ratio (Brain/Plasma)). The compound also showed an AUCInf in data set [6] (brain, PO 50 mg/kg) of 102348 ng·h/g.
In the case of `C#Cc1cccc(Nc2ncnc3cc(OCCOC)c(OCCOC)cc23)c1` [Erlotinib, N-(3-ethynylphenyl)-6,7-bis(2-methoxyethoxy)quinazolin-4-amine, reference compound], in data set [2], the “MLM (30 min)” value is on record as 56.3. In addition, in the data set on EGFR(L747-T751del, Sins), the “% Control @ 300 nM” value was found to be 0.12%. The HLM (30 min) in data set [3] was determined as 75.5%. In addition, in [5], the AUClast was determined as 4319 ng·h/g, the Cmax was determined as 1710 ng/g and the Tmax came to 4 h.
